Measured values reported in patent publication US20260234146A1, “Use of Hypoxia-Inducible Factor-Prolyl Hydroxylase Inhibitor (HIF-PHI) in Rare Anemia” (Kind Pharmaceutical, priority 2023, published 2026).
Marks after values point to notes of the source that are not given here.

Tested on: Hbb^d3th/d3th mice
Assay: Effect on homozygous β-thalassemia mice (CBC analysis)
Format: in vivo
Parameters: HGB Hemoglobin content: unit not given here
Experimental: Throughout the experimental stage, animals were housed in cages in an animal room with 24-hour continuous central air conditioning, temperature set at 20-26° C., relative air humidity set at 40-70%, and a 12-hour light/dark cycle. All animals had free access to food (irradiated sterile feed) and water (prepared by an ultrapure water system). The mouse strain used in the experiment was: Hbb^d3th/d3th mice; female and male, 9-15 weeks old, weighing 25-30 grams. The breeding method involved one male paired with two females. Male mice with the Hbb^d3th/d3th genotype, and female mice with the Hbb^d3th/+ genotype were selected. At one week of age, tissue DNA was extracted from toe clips of offspring. Subsequently, PCR amplification and agarose gel electrophoresis for band separation were used for genotyping. Before the experiment, secondary genotyping was performed on mice of appropriate age, and mice with no significant differences in body weight and appearance were selected as experimental animals. Vehicle 1 (0.1 M meglumine aqueous solution) was prepared by dissolving an appropriate amount of meglumine (0.586 g) in an appropriate amount of deionized water (30 mL) with stirring to prepare the vehicle. After preparation, the vehicle was aliquoted into daily doses and stored at 5±3° C. Before administration, it was stirred at room temperature for at least 10 minutes and stirred continuously during the dosing process.
Comp-1: The required amount of Comp-1 was weighed, completely dissolved in an appropriate volume of Vehicle 1, with stirring and sonicating to form a solution. After visually observing dissolution, vehicle was gradually added to reach the specified volume. Before daily dosing, the formulations (including vehicle) were removed from refrigerator and allowed to reach room temperature. Formulations were stirred at room temperature for at least 10 minutes before administration and stirred throughout the dosing process. The route of administration was oral gavage for all groups, with a dosing volume of 10 mL/kg for all groups, and a dosing frequency of daily for a total of 42 days.
On days 0, 15, 29, and 43 of dosing, 50 μl of blood was collected from orbit of mice, stored at 4° C., and allowed to return to room temperature before analysis. Samples were then gently mixed and added to pre-prepared diluent (blood:diluent=1:6). Data were obtained using the instrument's pre-dilution mode for detection. Data statistics were processed and analyzed using Microsoft Office Excel (Microsoft Corporation, version 2013, Redmond, WA, USA) and GraphPad Prism 7.0. Red blood cell counts and percentages were reported with two significant FIGURES. T-test analysis was used for comparisons of blood cell counts and percentages between groups and within groups at different time points.

With `O=C(O)CNC(=O)C1=C(O)C2(CCCC2)n2c(ccc2-c2ccccc2)C1=O` [Comp-1, (6′-hydroxy-8′-oxo-3′-phenyl-8′H-spiro[cyclopentane-1,5′-indolizine]-7′-carbonyl)glycine] the “HCT Hematocrit” value (5 mpk group, Day 0 (pre-dose)) was 27.58%, the “HGB Hemoglobin content” value (5 mpk group, Day 0 (pre-dose)) was 74.60 and the “RBC Red Blood Cell Count” value (5 mpk group, Day 0 (pre-dose)) was 7.90 10^12/L. For the same molecule, the “HCT Hematocrit” value (5 mpk oral daily, Day 15) was 31.16# %, the “HGB Hemoglobin content” value (5 mpk oral daily, Day 15) was 81.20 and the “RBC Red Blood Cell Count” value (5 mpk oral daily, Day 15) was 8.35 10^12/L. The “HCT Hematocrit” value (5 mpk oral daily, Day 29) was 32.10## %, the “HGB Hemoglobin content” value (5 mpk oral daily, Day 29) was 83.00 and the “RBC Red Blood Cell Count” value (5 mpk oral daily, Day 29) was 8.59 10^12/L. For the same molecule, the “HCT Hematocrit” value (5 mpk oral daily, Day 43) was 31.04## %, the “HGB Hemoglobin content” value (5 mpk oral daily, Day 43) was 80.20 and the “RBC Red Blood Cell Count” value (5 mpk oral daily, Day 43) was 8.58 10^12/L. The “HCT Hematocrit” value (10 mpk group, Day 0 (pre-dose)) was 26.20%, the “HGB Hemoglobin content” value (10 mpk group, Day 0 (pre-dose)) was 74.80 and the “RBC Red Blood Cell Count” value (10 mpk group, Day 0 (pre-dose)) was 7.90 10^12/L. The “HCT Hematocrit” value (10 mpk oral daily, Day 15) was 31.92## %, the “HGB Hemoglobin content” value (10 mpk oral daily, Day 15) was 83.60 and the “RBC Red Blood Cell Count” value (10 mpk oral daily, Day 15) was 8.60## 10^12/L. The “HCT Hematocrit” value (10 mpk oral daily, Day 29) was 33.02## %, the “HGB Hemoglobin content” value (10 mpk oral daily, Day 29) was 88.04 and the “RBC Red Blood Cell Count” value (10 mpk oral daily, Day 29) was 9.15# 10^12/L. The “HCT Hematocrit” value (10 mpk oral daily, Day 43) was 33.36### %, the “HGB Hemoglobin content” value (10 mpk oral daily, Day 43) was 89.40 and the “RBC Red Blood Cell Count” value (10 mpk oral daily, Day 43) was 9.30## 10^12/L. For the same molecule, the “HCT Hematocrit” value (15 mpk group, Day 0 (pre-dose)) was 27.48%, the “HGB Hemoglobin content” value (15 mpk group, Day 0 (pre-dose)) was 75.00 and the “RBC Red Blood Cell Count” value (15 mpk group, Day 0 (pre-dose)) was 7.77 10^12/L. The “HCT Hematocrit” value (15 mpk oral daily, Day 15) was 34.50## %, the “HGB Hemoglobin content” value (15 mpk oral daily, Day 15) was 90.17 and the “RBC Red Blood Cell Count” value (15 mpk oral daily, Day 15) was 8.95# 10^12/L. For the same molecule, the “HCT Hematocrit” value (15 mpk oral daily, Day 29) was 36.13### %, the “HGB Hemoglobin content” value (15 mpk oral daily, Day 29) was 97.5 and the “RBC Red Blood Cell Count” value (15 mpk oral daily, Day 29) was 9.72#### 10^12/L. For the same molecule, the “HCT Hematocrit” value (15 mpk oral daily, Day 43) was 36.10#### %, the “HGB Hemoglobin content” value (15 mpk oral daily, Day 43) was 94.83 and the “RBC Red Blood Cell Count” value (15 mpk oral daily, Day 43) was 9.45#### 10^12/L.
